# Measured values: patent US20260115250A1, “METHODS OF TREATING AGE-RELATED MACULAR DEGENERATION” (Character Biosciences, Inc., priority 2022, published 2026)
# Ends that are not written are not given here. Peptide text beside a SMILES is read from it.
# Key:
# LDLR [1] = biological target: T1, LDLR (Homo sapiens, UniProt P01130); experiment: KD (µM)
# Source text: First copying reader's note: Left of three side-by-side panels of FIG. 23; the KD cells hold value ± error together. Where the first naming reader finds the target: description_of_the_figure: FIG. 23 is a table showing the binding kinetics results of LDLR binding assays (SPR)
# Target sequence in this assay (P01130 22-860 limits assumed): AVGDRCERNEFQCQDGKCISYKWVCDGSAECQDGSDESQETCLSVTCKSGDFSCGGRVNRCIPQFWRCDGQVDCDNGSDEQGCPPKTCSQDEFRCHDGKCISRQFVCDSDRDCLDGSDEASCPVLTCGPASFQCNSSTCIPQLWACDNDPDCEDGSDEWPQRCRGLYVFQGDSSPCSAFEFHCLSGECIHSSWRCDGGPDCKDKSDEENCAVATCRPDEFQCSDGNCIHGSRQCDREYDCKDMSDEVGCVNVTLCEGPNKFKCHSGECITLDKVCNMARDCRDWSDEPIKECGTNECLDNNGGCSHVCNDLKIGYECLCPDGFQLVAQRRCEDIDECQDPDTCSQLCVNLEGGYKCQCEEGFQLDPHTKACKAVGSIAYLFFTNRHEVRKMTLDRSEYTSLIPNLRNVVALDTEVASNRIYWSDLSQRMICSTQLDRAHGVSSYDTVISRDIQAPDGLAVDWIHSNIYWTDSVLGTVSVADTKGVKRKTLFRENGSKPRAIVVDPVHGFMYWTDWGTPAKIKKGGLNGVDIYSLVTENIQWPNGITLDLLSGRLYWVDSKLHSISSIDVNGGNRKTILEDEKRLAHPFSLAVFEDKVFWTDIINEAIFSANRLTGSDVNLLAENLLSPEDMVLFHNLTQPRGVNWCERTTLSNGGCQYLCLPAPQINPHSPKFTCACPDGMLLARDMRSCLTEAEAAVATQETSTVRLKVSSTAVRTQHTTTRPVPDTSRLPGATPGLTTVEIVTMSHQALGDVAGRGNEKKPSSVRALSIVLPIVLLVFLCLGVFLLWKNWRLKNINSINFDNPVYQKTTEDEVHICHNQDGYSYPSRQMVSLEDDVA
# LDLR [2] = biological target: T1, LDLR; experiment: KD, Peptide (μM)
# Target sequence in this assay (P01130 22-860 limits assumed): as above
# Source text: Title: Buffer: HBS + 0.005% P20
# Head of the field: KD, Peptide (μM)
# First copying reader's note: KD values are for binding to LDLR by SPR, peptide alone versus peptide:DMPC lipid complex; the table continues on FIG. 24B.
# LDLR [3] = biological target: T1, LDLR; experiment: LDLR binding (SPR), high surfactant preparation; settings: high surfactant preparation (HBS-P+), 1:1 binding model; read-out: binding KD to LDLR
# Method in brief: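 Surface plasmon resonance with recombinant LDLR amine-coupled to a CM5 chip at 1000 RU. Peptides, 5 μM top concentration then 1:3 dilutions (5 levels) in HBS-P+ with 1 mM CaCl2, injected 120 seconds at 30 μL/sec; multi-cycle kinetics fitted to a 1:1 binding model.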
# Target sequence in this assay (P01130 22-860): as the sequence (P01130 22-860 limits assumed) above
Compound,Kd (LDLR [1]) [µM],Kd (LDLR [2]) [µM],Kd (LDLR [3]) [µM]
CC(C)C[C@H](NC(=O)[C@H](CCCNC(=N)N)NC(=O)[C@H](CCCCN)NC(=O)[C@H](CCC(N)=O)NC(=O)[C@H](CC(C)C)NC(=O)[C@H](CC(=O)O)NC(=O)[C@H](CC(=O)O)NC(=O)[C@H](C)NC(=O)[C@H](CC(=O)O)NC(=O)[C@H](CCCNC(=N)N)NC(=O)[C@H](CC(C)C)NC(=O)[C@H](CC(C)C)NC(=O)[C@H](CCCNC(=N)N)NC(=O)[C@H](CCCCN)NC(=O)[C@H](CCCNC(=N)N)NC(=O)[C@H](CC(C)C)NC(=O)[C@H](CCCCN)NC(=O)[C@H](CCCNC(=N)N)NC(=O)[C@H](CC(C)C)NC(=O)[C@@H](N)Cc1c[nH]cn1)C(=O)N[C@@H](C)C(=O)N[C@H](C(=O)N[C@@H](Cc1ccc(O)cc1)C(=O)N[C@@H](CCC(N)=O)C(=O)N[C@@H](C)C(=O)NCC(=O)N[C@@H](C)C(=O)N[C@@H](CCCNC(=N)N)C(=O)N[C@@H](CCC(=O)O)C(=O)NCC(=O)N[C@@H](C)C(=O)N[C@@H](CCC(=O)O)C(=O)N[C@@H](CCCNC(=N)N)C(=O)O)C(C)C [T-043] (H-HLRKLRKRLLRDADDLQKRLAVYQAGAREGAER-OH; N-terminus and C-terminus assumed),48.6,840 ± 1150,
CC(C)C[C@H](NC(=O)[C@H](CCCNC(=N)N)NC(=O)[C@H](CCCCN)NC(=O)[C@H](CCC(N)=O)NC(=O)[C@H](CC(C)C)NC(=O)[C@H](CC(=O)O)NC(=O)[C@H](CC(=O)O)NC(=O)[C@H](C)NC(=O)[C@H](CC(=O)O)NC(=O)[C@H](CCCNC(=N)N)NC(=O)[C@H](CC(C)C)NC(=O)[C@H](CC(C)C)NC(=O)[C@H](CCCNC(=N)N)NC(=O)[C@H](CCCCN)NC(=O)[C@H](CCCNC(=N)N)NC(=O)[C@H](CC(C)C)NC(=O)[C@H](CCCCN)NC(=O)[C@H](CCCNC(=N)N)NC(=O)[C@H](CC(C)C)NC(=O)[C@@H](N)Cc1c[nH]cn1)C(=O)N[C@@H](C)C(=O)N[C@H](C(=O)N[C@@H](Cc1ccc(O)cc1)C(=O)N[C@@H](CCC(N)=O)C(=O)N[C@@H](C)C(=O)O)C(C)C [T-045] (H-HLRKLRKRLLRDADDLQKRLAVYQA-OH; N-terminus and C-terminus assumed),71.2 ± 31.8,11800 ± 1250,
CC(C)C[C@H](NC(=O)[C@H](CCCNC(=N)N)NC(=O)[C@H](CCCCN)NC(=O)[C@H](CCC(N)=O)NC(=O)[C@H](CC(C)C)NC(=O)[C@H](CC(=O)O)NC(=O)[C@H](CC(=O)O)NC(=O)[C@H](C)NC(=O)[C@H](CC(=O)O)NC(=O)[C@H](CCCNC(=N)N)NC(=O)[C@H](C)NC(=O)[C@H](CC(C)C)NC(=O)[C@H](CCCNC(=N)N)NC(=O)[C@H](CCCCN)NC(=O)[C@H](CCCNC(=N)N)NC(=O)[C@H](CC(C)C)NC(=O)[C@H](CCCCN)NC(=O)[C@H](CCCNC(=N)N)NC(=O)[C@H](CC(C)C)NC(=O)[C@H](Cc1c[nH]cn1)NC(=O)[C@H](CCCNC(=N)N)NC(=O)[C@H](C)NC(=O)[C@@H](N)CC(C)C)C(=O)N[C@@H](C)C(=O)N[C@H](C(=O)N[C@@H](Cc1ccc(O)cc1)C(=O)N[C@@H](CCC(N)=O)C(=O)N[C@@H](C)C(=O)NCC(=O)N[C@@H](C)C(=O)N[C@@H](CCCNC(=N)N)C(=O)N[C@@H](CCC(=O)O)C(=O)NCC(=O)N[C@@H](C)C(=O)N[C@@H](CCC(=O)O)C(=O)N[C@@H](CCCNC(=N)N)C(=O)O)C(C)C [T-047] (H-LARHLRKLRKRLARDADDLQKRLAVYQAGAREGAER-OH),3.26 ± 0.23,,< 10
CC(C)C[C@H](NC(=O)[C@H](CCCNC(=N)N)NC(=O)[C@H](CC(=O)O)NC(=O)[C@H](CCC(N)=O)NC(=O)[C@H](CC(C)C)NC(=O)[C@H](CCCCN)NC(=O)[C@H](CC(=O)O)NC(=O)CNC(=O)[C@H](CC(=O)O)NC(=O)[C@H](CCCNC(=N)N)NC(=O)[C@H](CC(C)C)NC(=O)[C@H](CC(C)C)NC(=O)[C@H](CCCNC(=N)N)NC(=O)[C@H](CCCCN)NC(=O)[C@H](CCCNC(=N)N)NC(=O)[C@H](CC(C)C)NC(=O)[C@H](CCCCN)NC(=O)[C@H](CCCNC(=N)N)NC(=O)[C@H](CC(C)C)NC(=O)[C@H](Cc1c[nH]cn1)NC(=O)[C@H](CO)NC(=O)[C@H](C)NC(=O)[C@@H](N)CC(C)C)C(=O)N[C@@H](C)C(=O)N[C@@H](CCC(=O)O)C(=O)N[C@@H](Cc1ccc(O)cc1)C(=O)N[C@@H](CCC(N)=O)C(=O)N[C@@H](C)C(=O)N[C@@H](CCCNC(=N)N)C(=O)N[C@@H](C)C(=O)N[C@@H](CCCCN)C(=O)N[C@@H](CCC(=O)O)C(=O)N[C@@H](C)C(=O)N[C@@H](Cc1ccccc1)C(=O)N[C@@H](CC(=O)O)C(=O)N[C@@H](CCCNC(=N)N)C(=O)O [T-048],,11.4 ± 5.29,< 10
CC(C)C[C@H](NC(=O)[C@H](CCCNC(=N)N)NC(=O)[C@H](CC(=O)O)NC(=O)[C@H](CCC(N)=O)NC(=O)[C@H](CC(C)C)NC(=O)[C@H](CCCCN)NC(=O)[C@H](CC(=O)O)NC(=O)CNC(=O)[C@H](CC(=O)O)NC(=O)[C@H](CCCNC(=N)N)NC(=O)[C@H](C)NC(=O)[C@H](CC(C)C)NC(=O)[C@H](CCCNC(=N)N)NC(=O)[C@H](CCCCN)NC(=O)[C@H](CCCNC(=N)N)NC(=O)[C@H](CC(C)C)NC(=O)[C@H](CCCCN)NC(=O)[C@H](CCCNC(=N)N)NC(=O)[C@H](CC(C)C)NC(=O)[C@H](Cc1c[nH]cn1)NC(=O)[C@H](CCCNC(=N)N)NC(=O)[C@H](C)NC(=O)[C@@H](N)CC(C)C)C(=O)N[C@@H](C)C(=O)N[C@@H](CCC(=O)O)C(=O)N[C@@H](Cc1ccc(O)cc1)C(=O)N[C@@H](CCC(N)=O)C(=O)N[C@@H](C)C(=O)N[C@@H](CCCNC(=N)N)C(=O)N[C@@H](C)C(=O)N[C@@H](CCCCN)C(=O)N[C@@H](CCC(=O)O)C(=O)N[C@@H](C)C(=O)N[C@@H](Cc1ccccc1)C(=O)N[C@@H](CC(=O)O)C(=O)N[C@@H](CCCNC(=N)N)C(=O)O [T-049] (H-LARHLRKLRKRLARDGDKLQDRLAEYQARAKEAFDR-OH),3.26 ± 0.2,,< 10

# Continued, values first:
Kd (LDLR [1]) [µM],Kd (LDLR [2]) [µM],Kd (LDLR [3]) [µM],Compound
528.5 ± 0.71,,,CC(C)C[C@H](NC(=O)[C@H](CCCNC(=N)N)NC(=O)[C@H](CC(=O)O)NC(=O)[C@H](CCC(N)=O)NC(=O)[C@H](CC(C)C)NC(=O)[C@H](CCCCN)NC(=O)[C@H](CC(=O)O)NC(=O)[C@H](C)NC(=O)[C@H](CC(=O)O)NC(=O)[C@H](CCCNC(=N)N)NC(=O)[C@H](CC(C)C)NC(=O)[C@H](CC(C)C)NC(=O)[C@H](CCCNC(=N)N)NC(=O)[C@H](CCCCN)NC(=O)[C@H](CCCNC(=N)N)NC(=O)[C@H](CC(C)C)NC(=O)[C@H](CCCCN)NC(=O)[C@H](CCCNC(=N)N)NC(=O)[C@H](CC(C)C)NC(=O)[C@@H](N)Cc1c[nH]cn1)C(=O)N[C@@H](C)C(=O)N[C@@H](CCC(=O)O)C(=O)N[C@@H](Cc1ccc(O)cc1)C(=O)N[C@@H](CCC(N)=O)C(=O)N[C@@H](C)C(=O)N[C@@H](CCCNC(=N)N)C(=O)N[C@@H](C)C(=O)N[C@@H](CCCCN)C(=O)N[C@@H](CCC(=O)O)C(=O)N[C@@H](C)C(=O)N[C@@H](Cc1ccccc1)C(=O)N[C@@H](CC(=O)O)C(=O)N[C@@H](CCCNC(=N)N)C(=O)O [T-050] (H-HLRKLRKRLLRDADKLQDRLAEYQARAKEAFDR-OH; N-terminus and C-terminus assumed)
121 ± 14.9,43000 ± 34000,,CC(C)C[C@H](NC(=O)[C@H](CCCNC(=N)N)NC(=O)[C@H](CC(=O)O)NC(=O)[C@H](CCC(N)=O)NC(=O)[C@H](CC(C)C)NC(=O)[C@H](CCCCN)NC(=O)[C@H](CC(=O)O)NC(=O)CNC(=O)[C@H](CC(=O)O)NC(=O)[C@H](CCCNC(=N)N)NC(=O)[C@H](CC(C)C)NC(=O)[C@H](CC(C)C)NC(=O)[C@H](CCCNC(=N)N)NC(=O)[C@H](CCCCN)NC(=O)[C@H](CCCNC(=N)N)NC(=O)[C@H](CC(C)C)NC(=O)[C@H](CCCCN)NC(=O)[C@H](CCCNC(=N)N)NC(=O)[C@H](CC(C)C)NC(=O)[C@@H](N)Cc1c[nH]cn1)C(=O)N[C@@H](C)C(=O)N[C@H](C(=O)N[C@@H](Cc1ccc(O)cc1)C(=O)N[C@@H](CCC(N)=O)C(=O)N[C@@H](C)C(=O)N[C@@H](CCCNC(=N)N)C(=O)N[C@@H](C)C(=O)N[C@@H](CCCCN)C(=O)N[C@@H](CCC(=O)O)C(=O)N[C@@H](C)C(=O)N[C@@H](Cc1ccccc1)C(=O)N[C@@H](CC(=O)O)C(=O)N[C@@H](CCCNC(=N)N)C(=O)O)C(C)C [T-053] (H-HLRKLRKRLLRDGDKLQDRLAVYQARAKEAFDR-OH; N-terminus and C-terminus assumed)
,18.5 ± 2.69,,LVQYRGEVQAMLGQSTEELRVRLASHLRKLRKRLLRDADDLQ [T-071]
